Here are results for three compounds from patent US20060034925A1, “Tumor targeting drug-loaded particles” (priority 2004, published 2006).

The nature of data set [1]: retention of PLGA microparticles in peritoneal cavity. It is filed as in vivo, mice. Conditions: intraperitoneal administration; at 24 hours. An excerpt: Localization and disposition of PLGA microparticles within the peritoneal cavity after intraperitoneal administration was studied using rhodamine-loaded fluorescence microparticles. The disposition was compared with that of rhodamine in solution.

In a further data set the test system is peritoneal cancer. Particulars: intraperitoneal administration in patients; cited from earlier work.
For the next data set, the system named is MIA-PaCa. Description: cytotoxicity of paclitaxel, MTT assay. It is filed as cell-based. Conditions: Homo sapiens, MIA PaCa-2, read-out: concentration required to produce 50% cytotoxicity (IC50), 96 hour treatment, dissolved in water. The method, then: (§1) Drug effect was measured using the microtetrazolium dye reduction (MTT) assay.
(In general: Formazan colour is commonly taken as a measure of viable cells.)

The next data set concerns PANC1. Description: cytotoxicity of paclitaxel, MTT assay. It is filed as cell-based. Conditions: Homo sapiens, PANC-1, read-out: concentration required to produce 50% cytotoxicity (IC50), 96 hour treatment, dissolved in water. The protocol: as §1
A further data set relates to Hs766T. Description: cytotoxicity of paclitaxel, MTT assay. It is filed as cell-based. Conditions: Homo sapiens, read-out: concentration required to produce 50% cytotoxicity (IC50), 96 hour treatment, dissolved in water. The method, then: as §1
Data set [2] has as its system Human RT4 bladder transitional bladder cancer cells. Description: cytotoxicity in RT4 cells, sulforhodamine B assay. It is filed as cell-based. In general terms: In SRB staining, fixed cells bind dye roughly in proportion to their protein.
In data set [3] the test system is multiple human tumor cells. Conditions: treatment for 3 hours; cited from earlier work.

`CCN(CC)c1ccc2c(-c3ccccc3C(=O)O)c3ccc(=[N+](CC)CC)cc-3oc2c1` [rhodamine in solution, rhodamine]: in data set [1], the “localization in the peritoneal cavity (fluorescence)” value is “could no longer be observed in the peritoneal cavity”.

Consider `N.N.[Cl][Pt][Cl]` [cisplatin], for which the “extension of survival time” value with peritoneal cancer was “about 20%”.

For the compound `CC(=O)O[C@H]1C(=O)[C@@]2(C)[C@H]([C@H](OC(=O)c3ccccc3)[C@]3(O)C[C@H](OC(=O)[C@H](O)[C@@H](NC(=O)c4ccccc4)c4ccccc4)C(C)=C1C3(C)C)[C@]1(OC(C)=O)CO[C@@H]1C[C@@H]2O` [paclitaxel], the IC50 in the data set on MIA-PaCa turned out to be 0.7 nM; with PANC1, 1.5 nM; in the data set with Hs766T it was 0.7 nM; in data set [2] (RT-4, 48 h, RT4, 48 hour treatment, immediate effect), 11 ± 0.4 nM; in data set [2] (RT-4, 96 h, RT4, 96 hour treatment, immediate effect) it was 4 ± 0.4 nM; in data set [2] (RT-4, RT4, 15 minute treatment, delayed effect measured at 96 hours), 157 ± 6.6 nM. Besides, the IC50 in data set [2] (RT-4, RT4, 2 hour treatment, delayed effect measured at 96 hours) worked out at 33 ± 4.8 nM. Further, the “concentration sufficient to induce apoptosis” value in data set [3] was 200 nM.
